Laboratory results: US20240252454A1, “COMPOSITION COMPRISING AN INHIBITOR OF MITOCHONDRIAL TRANSCRIPTION” (LEAD DISCOVERY CENTER GMBH, priority 2021, published 2024)
Read-outs that look alike come from different tables or passages of the source.

Assays:
Experiment in all cases: CellTiter-GLO (CTG) assay, combinatorial matrix
Format in all cases: cell-based
HEC59 = settings: HEC59, 72 hours, IMT at the μM of c0, untreated control =100%, read-out: Measured residual activity (cellular ATP content)
Description: (§1) To determine the in vitro cellular viability, cellular ATP concentrations were measured using a luminescence-based homogenous assay format, as described here. […] Optimal cell density for each cell line was determined to guarantee linearity. For viability assays with compounds, cells were then seeded at a density of 200 to 1000 per well in 25 μl in 384-well plates (Greiner Bio-One, Frickenhausen, Germany). After overnight incubation at 37° C./5% CO2, 25 nl or 75 nl compounds were added to each sample well by using BIOMEK FXP Laboratory Automation Workstation (Beckman Coulter, USA). Wells with cells and 0.1% or 0.3% DMSO in culture medium were used as positive controls, wells with cells and 10 μM staurosporine (Selleck Chemicals, Huston, USA) in culture medium were used as negative controls. Upon incubation with compounds for 72 h at 37° C./5% CO2 25 μl Cell Titer Glo reagent (Promega, Madison, USA, European Pat. No. 1131441, U.S. Pat. Nos. 7,083,911, 7,452,663 and 7,732,128) 1:2 diluted with cell culture medium) was added to each well to determine cell viability. 384well-plates were placed for 2 min on an orbital microplate shaker and incubated for further 10 min at room temperature resulting in a stabilization of light signal. Luminescence was measured by Envision Plate Reader (Perkin Elmer, USA).
(§2) All in vitro cell culture experiments were carried out under near physiological glucose concentrations (5 mM) in at least two independent replicates.
(§3) To establish the method described, N,N-dimethyl-2-[4-(o-tolyl)-2-oxo-chromen-7-yl]oxy-propanamide, (3S)-1-[2-[4-(2-chloro-4-fluoro-phenyl)-2-oxo-chromen-7-yl]oxypropanoyl]piperidine-3-carboxylic acid, (3S)-1-[(2R)-2-[4-(2-chloro-4-fluoro-phenyl)-2-oxo-chromen-7-yl]oxypropanoyl]piperidine-3-carboxylic acid and BAY-876 were first examined with regard to their effect on the cell growth of twelve different tumour cell lines and the IC50 values were determined. This initial study was followed by validation experiments in a matrix format and in the CTG assay, as described under Example 1), in two tumour cell lines from uterine and ovarian carcinoma (HEC59 and A2780), as well as in primary human blood cells (PBMC) (Table 7).
(§4) Combinations of one concentration of IMT (μM; y-axis) and 30 μM-33 nM BAY-876 (x-axis) were incubated for 72 hours with HEC59, hPBMCs or A2780 and then the cellular ATP-content was determined using the CellTiter-GLO assay format. A: Measured residual activity (%) based on an untreated control group (=100%). B: The combinatorial indices are provided, based on the reference groups treated with the corresponding concentration of only one inhibitor class, according to Berenbaum and Cou & Talalay. <1=synergism, 1-2=additivity, 2>=antagonism.

[1] = system: primary human blood cells (PBMC); settings: Homo sapiens, PBMC, hPBMCs, 72 hours, IMT at the μM of c0, untreated control =100%, read-out: Measured residual activity (cellular ATP content)
Description: as §1, §2, §3, §4

A2780 = settings: for combination of IMT and PARPi compared to treatment with just the PARPi alone: A2780, CTG matrix, 30 μM to 10 nM IMT (3S)-1-[(2R)-2-[4-(2-chloro-4-fluoro-phenyl)-2-oxo-chromen-7-yl]oxypropanoyl]piperidine-3-carboxylic acid + 30 μM to 40 nM of the labelled PARPi
Description: as §1, §2

Cc1c(NC(=O)c2cc(C(N)=O)nc3cc(F)ccc23)c(C(F)(F)F)nn1Cc1ccc(C#N)cc1 [BAY-876]
activity at 0.041 µM (HEC59; BAY-876 0.041 μM): 74% | activity at 0.123 µM (HEC59; BAY-876 0.123 μM): 59% | activity at […] (HEC59; BAY-876 0.370 μM): 58% | activity at 1.111 µM (HEC59; BAY-876 1.111 μM): 32% | activity at […] (HEC59; BAY-876 3.3 μM): 18% | activity at 10 µM (HEC59; BAY-876 10 μM): 11% | activity at 30 µM (HEC59; BAY-876 30 μM): 8% | activity at 0.04 µM ([1]; BAY-876 0.04 μM): 104% | activity at […] ([1]; BAY-876 0.12 μM): 109% | activity at […] ([1]; BAY-876 0.37 μM): 90% | activity at 3.33 µM ([1]; BAY-876 3.33 μM): 98% | activity at 10 µM ([1]; BAY-876 10 μM): 87% | activity at 30 µM ([1]; BAY-876 30 μM): 101% | activity at 0.04 µM (A2780; Homo sapiens, A2780, 72 hours, BAY-876 0.04 μM, IMT at the μM of c0, untreated control =100%, read-out: Measured residual activity (cellular ATP content)): 88% | activity at 0.123 µM (A2780; Homo sapiens, A2780, 72 hours, BAY-876 0.123 μM, IMT at the μM of c0, untreated control =100%, read-out: Measured residual activity (cellular ATP content)): 78% | activity at […] (A2780; Homo sapiens, A2780, 72 hours, BAY-876 0.37 μM, IMT at the μM of c0, untreated control =100%, read-out: Measured residual activity (cellular ATP content)): 90% | activity at 3.33 µM (A2780; Homo sapiens, A2780, 72 hours, BAY-876 3.33 μM, IMT at the μM of c0, untreated control =100%, read-out: Measured residual activity (cellular ATP content)): 78% | activity at 10 µM (A2780; Homo sapiens, A2780, 72 hours, BAY-876 10 μM, IMT at the μM of c0, untreated control =100%, read-out: Measured residual activity (cellular ATP content)): 51% | activity at 30 µM (A2780; Homo sapiens, A2780, 72 hours, BAY-876 30 μM, IMT at the μM of c0, untreated control =100%, read-out: Measured residual activity (cellular ATP content)): 10%

C[C@]1(c2nc3c(C(N)=O)cccc3[nH]2)CCCN1 [Veliparib]
combination of IMT and PARPi compared to treatment with just the PARPi alone (A2780): advantage of the combination | activity at 0.04 µM (A2780; Homo sapiens, A2780, 72 hours, Veliparib 0.04 μM, IMT (3S)-1-[(2R)-2-[4-(2-chloro-4-fluoro-phenyl)-2-oxo-chromen-7-yl]oxypropanoyl]piperidine-3-carboxylic acid at the μM of c0, untreated control =100%, read-out: Measured residual activity (cellular ATP content)): 99% | activity at 0.1 µM (A2780; Homo sapiens, A2780, 72 hours, Veliparib 0.1 μM, IMT (3S)-1-[(2R)-2-[4-(2-chloro-4-fluoro-phenyl)-2-oxo-chromen-7-yl]oxypropanoyl]piperidine-3-carboxylic acid at the μM of c0, untreated control =100%, read-out: Measured residual activity (cellular ATP content)): 99% | activity at 0.4 µM (A2780; Homo sapiens, A2780, 72 hours, Veliparib 0.4 μM, IMT (3S)-1-[(2R)-2-[4-(2-chloro-4-fluoro-phenyl)-2-oxo-chromen-7-yl]oxypropanoyl]piperidine-3-carboxylic acid at the μM of c0, untreated control =100%, read-out: Measured residual activity (cellular ATP content)): 97% | activity at 1.1 µM (A2780; Homo sapiens, A2780, 72 hours, Veliparib 1.1 μM, IMT (3S)-1-[(2R)-2-[4-(2-chloro-4-fluoro-phenyl)-2-oxo-chromen-7-yl]oxypropanoyl]piperidine-3-carboxylic acid at the μM of c0, untreated control =100%, read-out: Measured residual activity (cellular ATP content)): 89% | activity at […] (A2780; Homo sapiens, A2780, 72 hours, Veliparib 3.3 μM, IMT (3S)-1-[(2R)-2-[4-(2-chloro-4-fluoro-phenyl)-2-oxo-chromen-7-yl]oxypropanoyl]piperidine-3-carboxylic acid at the μM of c0, untreated control =100%, read-out: Measured residual activity (cellular ATP content)): 85% | activity at 10 µM (A2780; Homo sapiens, A2780, 72 hours, Veliparib 10 μM, IMT (3S)-1-[(2R)-2-[4-(2-chloro-4-fluoro-phenyl)-2-oxo-chromen-7-yl]oxypropanoyl]piperidine-3-carboxylic acid at the μM of c0, untreated control =100%, read-out: Measured residual activity (cellular ATP content)): 43% | activity at 30 µM (A2780; Homo sapiens, A2780, 72 hours, Veliparib 30 μM, IMT (3S)-1-[(2R)-2-[4-(2-chloro-4-fluoro-phenyl)-2-oxo-chromen-7-yl]oxypropanoyl]piperidine-3-carboxylic acid at the μM of c0, untreated control =100%, read-out: Measured residual activity (cellular ATP content)): 6%

CNCc1ccc(-c2[nH]c3cc(F)cc4c3c2CCNC4=O)cc1 [Rucaparib]
combination of IMT and PARPi compared to treatment with just the PARPi alone (A2780): advantage of the combination | activity at 0.04 µM (A2780; Homo sapiens, A2780, 72 hours, Rucaparib 0.04 μM, IMT (3S)-1-[(2R)-2-[4-(2-chloro-4-fluoro-phenyl)-2-oxo-chromen-7-yl]oxypropanoyl]piperidine-3-carboxylic acid at the μM of c0, untreated control =100%, read-out: Measured residual activity (cellular ATP content)): 90% | activity at 0.1 µM (A2780; Homo sapiens, A2780, 72 hours, Rucaparib 0.1 μM, IMT (3S)-1-[(2R)-2-[4-(2-chloro-4-fluoro-phenyl)-2-oxo-chromen-7-yl]oxypropanoyl]piperidine-3-carboxylic acid at the μM of c0, untreated control =100%, read-out: Measured residual activity (cellular ATP content)): 70% | activity at 0.4 µM (A2780; Homo sapiens, A2780, 72 hours, Rucaparib 0.4 μM, IMT (3S)-1-[(2R)-2-[4-(2-chloro-4-fluoro-phenyl)-2-oxo-chromen-7-yl]oxypropanoyl]piperidine-3-carboxylic acid at the μM of c0, untreated control =100%, read-out: Measured residual activity (cellular ATP content)): 42% | activity at 1.1 µM (A2780; Homo sapiens, A2780, 72 hours, Rucaparib 1.1 μM, IMT (3S)-1-[(2R)-2-[4-(2-chloro-4-fluoro-phenyl)-2-oxo-chromen-7-yl]oxypropanoyl]piperidine-3-carboxylic acid at the μM of c0, untreated control =100%, read-out: Measured residual activity (cellular ATP content)): 21% | activity at […] (A2780; Homo sapiens, A2780, 72 hours, Rucaparib 3.3 μM, IMT (3S)-1-[(2R)-2-[4-(2-chloro-4-fluoro-phenyl)-2-oxo-chromen-7-yl]oxypropanoyl]piperidine-3-carboxylic acid at the μM of c0, untreated control =100%, read-out: Measured residual activity (cellular ATP content)): 6% | activity at 10 µM (A2780; Homo sapiens, A2780, 72 hours, Rucaparib 10 μM, IMT (3S)-1-[(2R)-2-[4-(2-chloro-4-fluoro-phenyl)-2-oxo-chromen-7-yl]oxypropanoyl]piperidine-3-carboxylic acid at the μM of c0, untreated control =100%, read-out: Measured residual activity (cellular ATP content)): 0% | activity at 30 µM (A2780; Homo sapiens, A2780, 72 hours, Rucaparib 30 μM, IMT (3S)-1-[(2R)-2-[4-(2-chloro-4-fluoro-phenyl)-2-oxo-chromen-7-yl]oxypropanoyl]piperidine-3-carboxylic acid at the μM of c0, untreated control =100%, read-out: Measured residual activity (cellular ATP content)): 0%
